Data reported in patent US8367682B2, “Pyrimidine derivatives and their use as pesticides” (Novartis AG, priority 2006, dated 2013).

How the values were obtained:
[1] = system: Rhipicephalus sanguineus nymphs; assay: In-vivo test against Rhipicephalus sanguineus nymphs on Mongolian gerbils; settings: for % reduction of number of ticks: spray (or spot-on) on gerbils, vs placebo group, Abbot's formula
Experimental: 4. In-Vivo Test Against Rhipicephalus sanquineus Nymphs on Mongolian Gerbils (Meriones unguiculatus)
On day 0, gerbils are treated with the test compound at a given dose by spray (or spot-on) application. On day +1 (+2), the animals are infested with nymphs of R. sanguineus. Ticks are left on the animals until full repletion. Seven days after infestation nymphs dropped off fully engorged are collected and counted. They are kept until molting to also evaluate growth regulating activity of the test compound. Efficacy in killing (and growth regulating) is expressed as a tick number (and molted tick number) reduction in comparison with a placebo treated group, using the Abbot's formula. A tick number reduction of more than 60%, in particular more than 70%, is regarded as a minimum prerequisite for a commercial development of a compound. In addition, said killing efficacy should be put into practice with the minimal dose for safety and environmental reasons.

[2] = system: Ctenocephalides felis; assay: Activity in vitro against Ctenocephalides felis (cat flea), HTS, artificial blood feeding; settings: in this test; adult fleas; concentration not given
Experimental: 3. Activity in Vitro Against Ctenocephalides felis (Cat Flea)—HTS
A mixed adult population of fleas is placed in a suitably formatted 96-well plate allowing fleas to access and feed on treated blood via an artificial feeding system. Each compound is tested by serial dilution in order to determine its MED. Fleas are fed on treated blood for 24 hours, after which the compound's effect is recorded. Insecticidal activity is determined on the basis of the number of dead fleas recovered from the feeding system.

[3] = system: Rhipicephalus sanguineus; assay: Activity in vitro against Rhipicephalus sanguineus (dog ticks), HTS; settings: in this test; adult ticks; concentration not given
Experimental: 2. Activity in Vitro Against Rhipicephalus sanguineus (Dog Ticks)—HTS
A clean adult tick population is used to seed a suitably formatted 96-well plate containing the test substances to be evaluated for antiparasitic activity. Each compound is tested by serial dilution in order to determine its MED. Ticks are left in contact with the test compound for 10 minutes and are then incubated at 28° C. and 80% relative humidity (RH) for 7 days, during which the test compound's effect is monitored. Acaricidal activity is confirmed if and when adult ticks are dead.

SMILES | % reduction of number of ticks ([1]; dose 3.2 mg/kg) [%] | % reduction of number of ticks ([1]; dose 10 mg/kg) [%] | also measured
Cn1ccc2ccc(-c3nc(Oc4ccc(F)c(C(F)(F)F)c4)c(N)c(Oc4ccc(F)c(C(F)(F)F)c4)n3)cc21 [Compound 2.2] | 89 |  | 
CC(O)c1cccc(-c2nc(Oc3ccc(F)c(C(F)(F)F)c3)c(N)c(Oc3ccc(F)c(C(F)(F)F)c3)n2)c1 (stereo not shown) [Compound 1.18] |  | 85 | 
Cc1cc(-c2nc(Oc3ccc(F)c(C(F)(F)F)c3)c(N)c(Oc3ccc(F)c(C(F)(F)F)c3)n2)ccc1F [Compound 1.23] |  | 99 | 
CN(C)c1cccc(-c2nc(Oc3ccc(F)c(C(F)(F)F)c3)c(N)c(Oc3ccc(F)c(C(F)(F)F)c3)n2)c1 [Compound 1.34, 2-(3-Dimethylamino-phenyl)-4,6-bis-(4-fluoro-3-trifluoromethyl-phenoxy)-pyrimidin-5-ylamine] | 85 |  | 
Nc1c(Oc2ccc(F)c(C(F)(F)F)c2)nc(-c2ccccc2)nc1Oc1ccc(F)c(C(F)(F)F)c1 [2-phenyl-4,6-bis-(4-fluoro-3-[trifluoromethyl]phenoxy)-5-amino-pyrimidine] |  |  | insecticidal efficacy [2]: does not show any significant insecticidal efficacy; killing efficacy ([1]; at these low concentrations (doses of the table, 3.2-10 mg/kg)): No significant killing efficacy; acaricidal efficacy [3]: does not show any significant acaricidal efficacy
COCc1cccc(-c2nc(Oc3ccc(F)c(C(F)(F)F)c3)c(N)c(Oc3ccc(F)c(C(F)(F)F)c3)n2)c1 [Compound 1.27] | 78 |  | 
CC(C)c1cccc(-c2nc(Oc3ccc(F)c(C(F)(F)F)c3)c(N)c(Oc3ccc(F)c(C(F)(F)F)c3)n2)c1 [Compound 1.10] |  | 81 | 
COc1cccc(-c2nc(Oc3ccc(F)c(C(F)(F)F)c3)c(N)c(Oc3ccc(F)c(C(F)(F)F)c3)n2)c1 [Compound 1.7] | 91 |  | 
Nc1c(Oc2ccc(F)c(C(F)(F)F)c2)nc(-c2cccc(N3CCOCC3)c2)nc1Oc1ccc(F)c(C(F)(F)F)c1 [Compound 1.30] | 79 |  | 
Cc1cccc(-c2nc(Oc3ccc(F)c(C(F)(F)F)c3)c(N)c(Oc3ccc(F)c(C(F)(F)F)c3)n2)c1 [Compound 1.9] |  | 74 | 
Nc1c(Oc2ccc(F)c(C(F)(F)F)c2)nc(-c2ccc3cc[nH]c3c2)nc1Oc1ccc(F)c(C(F)(F)F)c1 [Compound 2.3] | 81 |  | 
